Measurements reported in US9878999B2, “Proteasome chymotrypsin-like inhibition using PI-1833 analogs” (H. Lee Moffitt Cancer Center and Research Institute, Inc., priority 2011, dated 2018).
Several values for one entry are separate records, joined by “and”; a condition that tells them apart may be missing. Equal values may be shown once. Read-outs that look alike come from different tables or passages of the source.

Target: CT-L activity of purified 20S proteasome (Homo sapiens, UniProt P20618+P28074)
Assay: in vitro CT-L activity of purified 20S proteasome
Assay type: biochemical
Conditions: for inhibition at 10 µM / Screening Results (% Inhibition @ 10 μM) Chymotrypsin-like: Table 5, @ 10 μM; for inhibition at 10 µM: read-out: Screening Results (% Inhibition @ 10 μM) Chymotrypsin-like
[1] = Table 5, read-out: IC50 (μM) Chymotrypsin-like
[2] = Table 9, read-out: IC50 (μM) Chymotrypsin-like

Molecule | IC50 [1] [µM] | further results
Cc1ccc(OCC(=O)N(C)Cc2nc(-c3ccc(C)cc3)no2)cc1 [drawing 122] | 29.9 ± 3.9 | 
Cc1ccc(-c2noc(CN(C(=O)COc3ccccc3)C(C)C)n2)cc1 [drawing 124] | 8.47 ± 0.59 | 
CC(C)N(Cc1nc(-c2ccc(C(F)(F)F)cc2)no1)C(=O)COc1ccccc1 [drawing 126] | 15.1 ± 6.94 | 
CC(C)N(Cc1nc(-c2ccccc2)no1)C(=O)COc1ccccc1 [drawing 127] | 6.22 ± 1.11 | 
CCN(Cc1nc(-c2ccc(C)cc2)no1)C(=O)COc1ccc(C)cc1 [drawing 128] | 8.98 ± 5.21 | 
Cc1ccc(CNC(=O)N(Cc2nc(-c3ccccc3)no2)C(C)C)cc1 [drawing 129] |  | inhibition at 10 µM: -8.75 ± 17.4%
CC(C)N(Cc1nc(-c2ccccc2)no1)C(=O)CCc1ccc(C(F)(F)F)cc1 [drawing 130] | 44 ± 20.9 | 
CC(C)N(Cc1nc(-c2ccccc2)no1)C(=O)COc1ccc(F)cc1 [drawing 131] | 8.73 ± 3.05 | 
CC(C)N(Cc1nc(-c2ccccc2)no1)C(=O)COc1ccc(-c2ccccc2)cc1 [drawing 132] |  | inhibition at 10 µM: < 70%
CC(C)N(Cc1nc(-c2ccccc2)no1)C(=O)COc1ccc2cc(Br)ccc2c1 [drawing 133] |  | inhibition at 10 µM: < 70%
O=C(COc1ccc(C(F)(F)F)cc1)N(Cc1nc(-c2ccccc2)no1)C1CC1 [drawing 135] | 6.37 | Screening Results (% Inhibition @ 10 μM) Chymotrypsin-like: 35.35% and 33.80%; inhibition at 10 µM: 27.3%
Cc1cccc(OCC(=O)N(Cc2nc(-c3ccccc3)no2)C(C)C)c1 [drawing 136] |  | inhibition at 10 µM: < 70%
CC(C)N(Cc1nc(-c2ccccc2)no1)C(=O)COc1ccc(C(=O)OC(C)(C)C)cc1 [drawing 141] |  | inhibition at 10 µM: -62 ± 26.3%
Cc1ccc(OCC(=O)N(Cc2nc(-c3ccc(C)cc3)no2)C(C)(C)C)cc1 [drawing 142] |  | inhibition at 10 µM: -108 ± 119%
CC(C)N(Cc1nc(-c2ccccc2)no1)C(=O)COc1ccc(C(=O)O)cc1 [drawing 143] |  | Screening Results (% Inhibition @ 10 μM) Chymotrypsin-like: 27.76 ± 20.83 (n = 5) %
Cc1ccc(OCC(=O)N(CCc2nc(-c3ccccc3)no2)C(C)C)cc1 [drawing 144] |  | inhibition at 10 µM: 31.4 ± 11.2%
CC(C)CC(NC(=O)c1ccc(OCC(=O)N(Cc2nc(-c3ccccc3)no2)C(C)C)cc1)C(=O)O (centres unmarked) [drawing 146] |  | Screening Results (% Inhibition @ 10 μM) Chymotrypsin-like: −174.75 ± 134.18 (n = 5) %
Cc1ccc(NCC(=O)N(Cc2nc(-c3ccccc3)no2)C(C)C)cc1 [drawing 148] | 5.67 ± 0.96 | inhibition at 10 µM: 81.5 ± 2.77%
Cc1ccc(OCC(=O)N(Cc2nc3ccccc3[nH]2)C(C)C)cc1 [drawing 151] | 12.5 ± 2.96 | inhibition at 10 µM: 80.4 ± 3.04%
CC(C)CC(NC(=O)c1ccc(OCC(=O)N(Cc2nc(-c3ccccc3)no2)C(C)C)cc1)C(=O)O (centres unmarked) [drawing 153] |  | Screening Results (% Inhibition @ 10 μM) Chymotrypsin-like: −149.24 ± 157.49 (n = 5) %
Cc1ccc(OCC(=O)N(Cc2nc(-c3ccccc3)no2)C(C)C)cn1 [drawing 154] | 4 ± 0.89 | inhibition at 10 µM: 70.6 ± 5.09%
CC(C)N(Cc1nc(-c2ccccc2)no1)C(=O)COc1ccc(O)cc1 [drawing 156] | 10.1 ± 4.52 | inhibition at 10 µM: -5.85 ± 23.4%
Cc1ccc(O[C@H](C)C(=O)N(Cc2nc(-c3cccnc3)no2)C(C)C)cc1 [drawing 163] | 7.52 ± 2.13 | 
CC(C)N(Cc1nc(-c2cccnc2)no1)C(=O)COc1ccc(C(C)(C)C)cc1 [drawing 170] | 65.9 ± 33.7 | 
Cc1ccc(OCC(=O)N(Cc2nc(-c3ccc(C)cc3)no2)C2CC2)cc1 [drawing 172] |  | inhibition at 10 µM: -8.36 ± 19%
CC(C)N(Cc1nc(-c2ccccc2)no1)C(=O)CCc1ccc(C(F)(F)F)cc1 [drawing 180] |  | IC50 (Table 8, 20S CT-L proteasome activity, read-out: IC50 (μM) CT-L): 15.7 µM
CC(C)N(Cc1nc(-c2ccccc2)no1)C(=O)CCc1ccc(C(F)(F)F)cc1 [drawing 183] |  | IC50 [2]: 15.7 µM
Cc1ccc(OCC(=O)N(C)Cc2nc(-c3ccc(C)cc3)no2)cc1 [drawing 186] |  | IC50 [2]: 29.9 µM
Cc1ccc(OCC(=O)N(Cc2nc(-c3ccc(C)cc3)no2)CC(C)C)cc1 [drawing 187] |  | IC50 [2]: 2.37 ± 0.4 µM
N-Isopropyl-N-((2-phenyloxazol-4-yl)methyl)-2-(p-tolyloxy)acetamide [SO3-023] |  | IC50 (Table 4, read-out: IC50 (μM) Chymotrypsin-like activity): 0.45 ± 0.18 µM

The remaining molecules from weak to strong by IC50 [1], led by results:

IC50 [1] [µM] | Molecule | further results
3.75 ± 1.47 | Cc1ccc(OCC(=O)N(Cc2nc(-c3ccccn3)no2)C(C)C)cc1 [drawing 138] | 
3.12 ± 1.11 | CC(C)N(Cc1nc(-c2cccnc2)no1)C(=O)COc1ccccc1 [drawing 161] | 
1.4 ± 0.185 | CC(C)N(Cc1nc(-c2ccc(C(F)(F)F)cc2)no1)C(=O)COc1ccc(Cl)cc1 [drawing 120] | 
1.36 ± 0.184 | CC(C)N(Cc1nc(-c2cccnc2)no1)C(=O)COc1ccc(C2CCCCC2)cc1 [drawing 169] | 
1.27 ± 0.226 | CCCc1ccc(OCC(=O)N(Cc2nc(-c3ncccn3)no2)C(C)C)cc1 [drawing 174] | 
1.12 ± 0.33 | Cc1ccc(-c2noc(CN(C(=O)COc3ccc(Cl)cc3)C(C)C)n2)cc1 [drawing 123] | 
1.08 ± 0.33 | Cc1ccc(-c2noc(CN(C(=O)COc3ccc(C(F)(F)F)cc3)C(C)C)n2)cc1 [drawing 118] | 
1.07 ± 0.05 | CC(C)N(Cc1nc(-c2ccc(Cl)cc2)no1)C(=O)COc1ccc(Cl)cc1 [drawing 119] | 
0.98 ± 0.5 | CC(C)N(Cc1nc(-c2cccnc2)no1)C(=O)COc1ccc(O)cc1 [drawing 155] | inhibition at 10 µM: 78.4 ± 6.33%
0.51 ± 0.16 | CC(C)N(Cc1nc(-c2ccccc2)no1)C(=O)COc1ccc(Cl)cc1 [drawing 121] | 
0.436 ± 0.073 | CC(C)c1ccc(OCC(=O)N(Cc2nc(-c3cccnc3)no2)C(C)C)cc1 [drawing 171] | 
0.428 ± 0.038 | CCCCCCc1ccc(OCC(=O)N(Cc2nc(-c3cccnc3)no2)C(C)C)cc1 [drawing 165] | 
0.379 ± 0.063 | CC(C)N(Cc1nc(-c2cccnc2)no1)C(=O)c1cc2ccccc2o1 [drawing 160] | 
0.37 ± 0.046 | Cc1ccc(OCC(=O)N(Cc2nc(-c3ccncc3)no2)C(C)C)cc1 [drawing 147] | inhibition at 10 µM: 95.72 ± 0.88%
0.31 | Cc1ccc(OCC(=O)N(Cc2nc(-c3ccccc3)no2)C(C)C)cc1 [drawing 117] | 
0.267 ± 0.05 | CCc1ccc(OCC(=O)N(Cc2nc(-c3ccccc3)no2)C(C)C)cc1 [drawing 134] | 
0.22 ± 0.084 | Cc1ccc(OCC(=O)N(Cc2nc(-c3ccccc3)no2)C(C)C)cc1 [drawing 139] | 
0.214 ± 0.053 | Cc1ccc(O[C@@H](C)C(=O)N(Cc2nc(-c3cccnc3)no2)C(C)C)cc1 [drawing 162] | 
0.14 ± 0.052 | CC(C)Cc1ccc(OCC(=O)N(Cc2nc(-c3cccnc3)no2)C(C)C)cc1 [drawing 173] | 
0.121 ± 0.04 | CCCCCc1ccc(OCC(=O)N(Cc2nc(-c3cccnc3)no2)C(C)C)cc1 [drawing 164] | 
0.107 ± 0.013 | CCCCc1ccc(OCC(=O)N(Cc2nc(-c3cnccn3)no2)C(C)C)cc1 [drawing 166] | 
0.105 ± 0.031 | CCCc1ccc(OCC(=O)N(Cc2nc(-c3cnccn3)no2)C(C)C)cc1 [drawing 167] | 
0.099 ± 0.032 | CCc1ccc(OCC(=O)N(Cc2nc(-c3cccnc3)no2)C(C)C)cc1 [drawing 145] | 
0.039 ± 0.011 | CCCCc1ccc(OCC(=O)N(Cc2nc(-c3cccnc3)no2)C(C)C)cc1 [drawing 159] | 
0.032 ± 0.00015 | CCCc1ccc(OCC(=O)N(Cc2nc(-c3cccnc3)no2)C(C)C)cc1 [drawing 157] | inhibition at 10 µM: 92.3 ± 2.19%
0.032 ± 0.003 | CCCc1ccc(OCC(=O)N(Cc2nc(-c3cncnc3)no2)C(C)C)cc1 [drawing 168] | 
